Assay results taken from a melting point compilation (Tetko et al.; mined from patent text by program, amines drawn as free bases though some values may be those of a salt).
Residues, ends and D or L forms follow the SMILES beside them. *: point of attachment. Bz = O=C(c1ccccc1)*

Structure (SMILES)	melting point [°C]
CCP(=S)(CC)OC(=O)/C=N\OCc1csc(N)n1	87 to 88
N#Cc1ccc(N(CCOc2ccc(OCc3ccccc3)cc2)n2cnnc2)cc1	160 to 162
CC(=O)OCC1OC([NH+]2C=NC(C#N)=C2[O-])C(OC(C)=O)C1OC(C)=O (centres undefined)	160 to 161
CCOC1Nc2c(ccc(OC)c2OC(C)=O)C(=O)N2CCCC12 (centres undefined)	143 to 146
COc1ccc(S(=O)(=O)Nc2ccc(Cl)c(OCCN(C)C)c2)cc1OC	103 to 106
O=C1C2CSCC1CN(Cc1ccccc1)C2	91 to 92
Cn1nc(C(F)(F)F)cc1-c1ccc(F)cc1F	37 to 38
O[C@@H]1[C@H](O)[C@H](O)CO[C@H]1n1c(Br)nc2cc(Cl)ccc21	120
CCCCCc1c(C(C)C)nc(C(C)C)c(CN(C)C)c1-c1ccc(F)cc1	69 to 71
Nc1c(Br)cc(Cc2cc(Br)c(N)c(Br)c2)cc1Br	> 250
COC(=O)c1ccc(O)c(C2CCCC2)c1	114 to 116
CCCOc1cccc(-c2ccc3c(c2)C=C(C(=O)Nc2ccc(CN(C)C4CCOCC4)cc2)CCS3(=O)=O)c1	219 to 221
CS(=O)(=O)c1ccc(-c2ccc(S(=O)(=O)CC(CO)N(O)C=O)cc2)cc1 (centres undefined)	165 to 167
Cc1nc(N)c2nc(O)n(Cc3cc(-c4ccc(F)cc4)no3)c2c1C	250
Cc1cc(-c2ccc(Cl)c(Cl)c2)nc(-n2cnc(-c3ncc(S(N)(=O)=O)s3)c2)n1	230
C=C(C)C(=O)OCCOc1ccc(C(=O)O)cc1	146
O=c1oc2ccc(-c3ccc(F)cc3F)cc2c(=O)n1-c1ccc(F)cc1F	155 to 156
CN(c1nc(N)no1)c1c(Cl)cccc1Cl	177 to 178
CCCCCCC(C)(C)c1cc(OC)c(C2=C[C@@H]3CC[C@@]2(CO)C3(C)C)c(OC)c1	49 to 51
NC(=O)NN=Cc1ccc(Oc2ccc(F)cc2)c(F)c1	233 to 234
CC(C)(Cl)C(CCNC(=O)C(F)(F)F)N=O (centres undefined)	91 to 93
CCCc1c(OCCCOc2ccc3c(c2CCC)OC(CCC(=O)O)C=C3)ccc(C(C)=O)c1O (centres undefined)	60 to 62

Structure (SMILES)	melting point [°C]
CC1(C)OCC(COc2ccc(-c3ccc4cc(C(=O)O)ccc4c3)cc2C23CC4CC(CC(C4)C2)C3)O1 (centres undefined)	287
COc1ccc(/C=C(/C#N)c2cccs2)cc1OC1CCCC1	100 to 101
CC(C)=CCN1Cc2c(Br)ccc3[nH]c(=O)n(c23)CC1C (single isomer, unassigned; (+))	125
CNC(=S)NCC1CC(c2ccc(Cl)cc2)=NO1 (centres undefined)	131 to 133
CCCCCCCCCCC#Cc1c2ccccc2c2ccc3c(C#CCCCCCCCCCC)c4ccccc4c4ccc1c2c34	129 to 130
Cc1nc(-c2ccc(C#N)cc2)sc1C(=O)N1CO[C@@](Cn2cncn2)(c2ccc(F)cc2F)[C@H]1C	200 to 201
CC(CCCC(C)(C)O)C1CC(=O)C2=C3CCC4CC(O)CCC4(C)C3CCC21C (centres undefined)	177 to 179
O=C(O)C(CC1CCCC1)c1ccc([N+](=O)[O-])cc1 (centres undefined)	119 to 125
CN1Cc2c(-c3nc(CCl)co3)ncn2-c2cccc(Cl)c2C1=O	249 to 251
Cc1cc(N)c(C)c(C(=O)O)c1	146
CCOC(=O)CN(C)C(=O)c1ccccc1C(=O)c1cc(C(C)(C)C)c(O)c(C(C)(C)C)c1	98 to 99
C=C(C)COc1ccc(Cl)cc1CN(CC)c1ccc(C(=O)O)nn1	130 to 131
Cc1ccccc1C(CCC(=O)O)Oc1cc(OCc2ccsc2)cc(F)c1C#N (racemic)	150 to 151
Clc1ccc(Sc2ncccn2)cc1	68 to 70
COc1ccc(CN2CCC(c3cn(Cc4cccs4)c4cc(F)ccc34)CC2)cc1C(=O)O	245 to 246
CCCCCCCCCCCCc1nnc(C(C(=O)Nc2c(OC)cc(OC)cc2OC)c2ccccc2)o1 (centres undefined)	120 to 121
CC(=O)c1ccc(C(Br)C(=O)OC(C)(C)C)cc1 (centres undefined)	54 to 56
CC(C)C(N=C(NN)NN)C(=O)O (centres undefined)	112 to 116
Cc1cc(-c2noc(C)c2-c2ccc(S(N)(=O)=O)c(F)c2)ccc1-c1cscn1	159
Cc1ccc2c(c1)CN1CCCC1C(=O)N2C (centres undefined)	80 to 82
CCCCCNC(=O)CC(=O)O	67.5 to 68.5
CS(=O)(=O)Nc1ccc2c(c1)S(=O)(=O)NC(C1CCCCC1)N2 (centres undefined)	255 to 258

Structure (SMILES)	melting point [°C]
CC1CCN(c2cc3nc(C(C)(C)C)sc3cc2NC(=S)N2CCN(C)CC2)CC1	192 to 195
C=CCc1cc(C)cc(C(Nc2ccc(C(=N)N)cc2)C(=O)O)c1OCCO (racemic)	228
COC1=Nc2c(C)ccnc2N(C2CC2)c2ncccc21	191 to 192
CN(c1ccc(Cl)cc1[N+](=O)[O-])S(=O)(=O)c1ccc(Cl)s1	85 to 86
NC(=O)c1ccc(NC(=O)c2ccccc2SSc2ccccc2C(=O)Nc2ccc(C(N)=O)cc2)cc1	> 270
CCCCCCCCCCOc1ccc(CO)cc1	54 to 55
Cc1c(O)cc(N)cc1C(=O)O	> 250
CS(=O)(=O)OCC1(COc2ccc(Br)cc2)COC1	89 to 91
NCC1Cc2cc(C(F)(F)F)cc(-c3ccsc3)c2O1 (centres undefined)	> 250
CCCCNC(=O)Oc1cccc(NC(=O)CC(C)(OC)OC)c1	114
CCOC(=O)C1CCN(c2nc(CCl)c(C)s2)CC1	76 to 77
Cc1cc(C#N)cc(C(=O)Nc2cccc(Cl)c2)n1	148
O=C1CC2(CCCC2)c2ccc(O)cc21	145
COc1nccc2c1COC2=O	90
CC(C)(C)c1cc(=O)cc(C(C)(C)C)s1	97 to 98
CC(C)(Oc1ccc(CC(=O)Nc2ccc(Cl)cc2)cc1)C(=O)O	163
CCCn1nc(O)c2cc(Cl)c(Cl)cc2c1=O	223
CNc1c(SC(F)(F)F)c(C#N)nn1-c1c(Cl)cc(C(F)(F)F)cc1Cl	208 to 210
Nc1nc(NCCO)nc(-c2cc(Cl)ccc2Cl)n1	198 to 199
COc1cc(OCc2ccccn2)ccc1/C=C/c1cc(/C=C/c2ccc3[nH]cnc3c2)n[nH]1	135 to 142

The next lines start with the values.

melting point [°C]	Structure (SMILES)
158 to 162	CCOCCOCCn1ccc2c1CC(c1ccccc1Cl)C1C(=O)NC(=O)C21 (centres undefined)
269 to 270	COc1cc(Nc2c(C#N)cnc3cc(-c4cc5ccccc5s4)ccc23)c(Cl)cc1Cl
214 to 216	Cc1nc(-n2ccc(OCc3ccc(C(F)(F)F)o3)cc2=O)sc1C(=O)NCc1ccccc1
94 to 95	CC(C)c1c(C=O)c(-c2ccc(F)cc2)c2ccccn12
123	Cc1ccc(S(=O)(=O)N2[C@H](CCCNS(C)(=O)=O)CC[C@@H]2c2ccc(F)cc2)cc1 (racemic)
143 to 145	CCC(C)n1cc(Cl)nc(N2CCc3cc(OC)cc(Cl)c32)c1=O (centres undefined)
245 to 247	O=C(Nc1ccc(Cl)c(C(F)(F)F)c1)Nc1ccc(Cl)cc1-c1nnn[nH]1
178 to 180	COCCCn1c(CO)c(Br)c2c3c(c(-c4ccccc4Cl)cc21)C(=O)NC3=O
112 to 113	CN1CCCc2cccc(CS(=O)c3nc4ccccc4[nH]3)c21 (centres undefined)
179	O=C(O)C1=CS[C@@H]2/C(=C/c3ccc4c(c3)N(Cc3ccccc3)C(=O)c3ccccc3O4)C(=O)N12
147 to 148	CC(c1ccccc1)N1Cc2cncn2C(c2ccc(Br)cc2)C1=O (single isomer, unassigned; (+))
83 to 85	COc1ccc2sc(Cc3ccc(Cl)cc3)nc2c1
66.8	Clc1ccc2c(c1)CSc1ccccc1O2
227 to 229	COc1cc(OCCN2CCCC2)cc2nc(-c3cc(C)nc(C)c3)[nH]c(=O)c12
33 to 60	Nc1c(OCCNCc2ccccc2)cccc1[N+](=O)[O-]
152 to 153	COc1ccc(CSC(=S)N2C(CO)Cc3c([nH]c4ccccc34)C2C)cc1 (centres undefined)
144 to 145	CCn1nnnc1C(C=O)=C(c1ccc(F)cc1)c1ccc(F)cc1
178	CCOC(=O)c1nn(-c2ccc(OC(F)(F)F)cc2)c2cccc(F)c2c1=O

melting point [°C]	Structure (SMILES)
248 to 250	CC(=O)c1cc2c(s1)SCCc1cc(=O)n(-c3ccc(Cl)cc3)nc1-2
207	CCOC(=O)/C=C/c1ccc(NC(=O)c2csc(NC(=O)NCc3ccccc3)n2)cc1
93 to 94	CCN(CC)C(=O)COc1ccccc1C(O)(CC)c1cccc(Cl)c1 (centres undefined)
236 to 238	O=C(O)COC1=C(Cc2ccc3c(Cl)cccc3c2)C(=O)CCC1
82 to 84	Cc1ccc(S(=O)(=O)OCC2Cc3cc(Cl)c4c(c3O2)CCC4)cc1 (centres undefined)
128 to 135	N[C@H]1CC[C@H](CN2CCC(=C3c4ccccc4Sc4ccc(Cl)cc43)CC2)CC1
195 to 197	CC(=O)Nc1ccc2c(c1)CC1(OC1c1ccccc1)C2=O (centres undefined)
145 to 147	O=[N+]([O-])c1ccccc1-c1ccc(Br)cc1[N+](=O)[O-]
273	Oc1nc2nc(SCc3ccccc3)nn2c(O)c1-c1c(F)cc(F)cc1F
173 to 175	CCCc1nnc2c(Cl)nc3ccccc3n12
146 to 149	CCCCCCC=CCC1CC(=O)N(c2cc(Cc3n[nH]c(=O)c4ccccc34)ccc2F)C1=O (centres undefined)
257 to 259	COc1ccc(-c2csc(Nc3ccc4ccccc4n3)n2)cc1OC
140	O=C(Cc1cccc2ccccc12)Nc1cc(C2CC(NC(=O)C3CC3c3ccccc3)C2)[nH]n1 (centres undefined)
175 to 180	CCCCOc1ccc2cc(C(=O)O)ccc2c1
244 to 245	CC(C)(C)OC(=O)n1c(=O)n(C2CC3CC(N4CCN(c5ccc(F)cc5)CC4)CC3C2)c2ccccc21 (centres undefined)
179 to 182	O=C(Cc1ccccc1[N+](=O)[O-])CN1C(=O)c2ccccc2C1=O
200 to 202	CCNC(=O)[C@@H]1CCCN1C(=O)[C@H](C)NC(=O)c1ccccc1 (Bz-Ala-Pro-NHEt)
